Data published in US20240217968A1, “PHARMACEUTICAL COMPOUND” (DUKE STREET BIO LIMITED, priority 2021, published 2024).

Molecular target: T1, recombinant human Flag-tagged PARP7 (amino acids 456-657) (Homo sapiens, UniProt Q7Z3E1)
T1 construct: recombinant human Flag-tagged PARP7 (amino acids 456-657)
T1 sequence (Q7Z3E1 456-657): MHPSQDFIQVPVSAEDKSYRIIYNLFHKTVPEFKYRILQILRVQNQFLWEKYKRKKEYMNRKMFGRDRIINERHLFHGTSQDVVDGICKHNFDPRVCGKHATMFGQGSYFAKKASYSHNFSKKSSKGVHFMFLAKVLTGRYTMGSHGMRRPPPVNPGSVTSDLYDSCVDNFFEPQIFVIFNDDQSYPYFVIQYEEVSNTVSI
Assay: PARP7 biochemical DELFIA assay (auto-MARylation)
Details: DELFIA readout, IC50 class
Description: A suitable assay may be conducted using 10-30 nM PARP7 (amino acids 456-657), 2 μM biotin-NAD assay solution in 20 mM HEPES (pH 7.5), 100 mM NaCl, 2 mM DTT, 0.1% BSA (w/v), 0.02% Tween (v/v) assay buffer. MARylation may take place for 2-3 h at room temperature and may be detected using a dissociation-enhanced lanthanide fluorescence immunoassay (DELFIA) readout. This assay format has been recently utilised for screening for modulators of PARP7 and other MonoPARP enzymes ([…]. et al. Forced Self-Modification Assays as a Strategy to Screen MonoPARP Enzymes. SLAS Discovery. 25; 241-252, (2020)). A particularly suitable assay is described in the Examples below. Optiplate HB 384-well plates were coated with anti-FLAG antibody, supplied as a 4 mg/ml solution, using a Na2CO3/HCO3 coating buffer at pH 9.6, overnight at 4° C., in order to achieve a final immobilisation per well of 0.3 μg. Wells were then washed 3× in coating wash buffer (PBS/0.05% Tween (v/v)), blocked with 2% BSA (w/v) in coating wash buffer and washed 3 further times prior to assay. For the assay 20 μl of 12.5-37.5 nM recombinant human Flag-tagged PARP7 (amino acids 456-657) was added to each well of the 384-well plate for 30 min at room temperature. 50 nl of test compound in DMSO was added using pintool technology and plates were incubated for a further 30 min at room temperature. 5 μl of 15 μM biotin-NAD^+ assay solution in 20 mM HEPES (pH 7.5), 100 mM NaCl, 2 mM DTT, 0.1% BSA (w/v), 0.02% Tween (v/v) assay buffer was then added and MARylation proceeded for 2-3 h at room temperature prior to the addition of 5 μl of 12 mM NAD^+ quenching solution. After 30 min at room temperature, assay solution was removed and following washing 5 times, 100 μl of a 1:1000 dilution of DELFIA Eu-N1 Streptavidin reagent was added. Plates were then incubated for 30 min at room temperature. Reaction mixture was removed and plates washed 5 times prior to the addition of 25 μl DELFIA enhancement solution. Following incubation for 30 min at room temperature, fluorescence was read on either an Envision or Pherastar FS (Ex337 nm, Em620 nm).

Compound | IC50 [nM]
CC(COCCC(=O)N1CCN(c2ncc(Cl)cn2)CC1)n1nc(C(F)(F)F)c2c(=O)[nH]ncc21 (single isomer, unassigned) [Compound 185] | ≤ 100
CC1CN(C(=O)CCOCCn2nc(C(F)(F)F)c3c(=O)[nH]ncc32)CCN1c1ncc(C(F)(F)F)cn1 (single isomer, unassigned) [Compound 187] | ≤ 100
CC1CN(C(=O)CCOCCn2nc(C(F)(F)F)c3c(=O)[nH]ncc32)CCN1c1ncc(C(F)(F)F)cn1 (single isomer, unassigned) [Compound 188] | ≤ 100
CC(COCCC(=O)N1CCN(c2ccc(C#N)cn2)CC1)n1ncc2c(=O)[nH]ncc21 (single isomer, unassigned) [Compound 189] | ≤ 100
CC(COCCC(=O)N1CCN(c2ccc(C#N)cn2)CC1)n1ncc2c(=O)[nH]ncc21 (single isomer, unassigned) [Compound 190] | 100 to 1000
CCC(OCCCC(=O)N1CCN(c2ncc(C(F)(F)F)cn2)CC1)c1cccc2c(=O)[nH]ncc12 (single isomer, unassigned) [Compound 210] | ≤ 100
O=C(CCCOC(c1cccc2c(=O)[nH]ncc12)C(F)(F)F)N1CCN(c2ncc(C(F)(F)F)cn2)CC1 (single isomer, unassigned) [Compound 221, 5-(2,2,2-trifluoro-1-(4-oxo-4-(4-(5-(trifluoromethyl)pyrimidin-2-yl)piperazin-1-yl)butoxy)ethyl)phthalazin-1(2H)-one] | 100 to 1000
O=C(CCCOC(c1cccc2c(=O)[nH]ncc12)C(F)(F)F)N1CCN(c2ncc(C(F)(F)F)cn2)CC1 (single isomer, unassigned) [Compound 222, 5-(2,2,2-trifluoro-1-(4-oxo-4-(4-(5-(trifluoromethyl)pyrimidin-2-yl)piperazin-1-yl)butoxy)ethyl)phthalazin-1(2H)-one] | 100 to 1000
CC(COCCC(=O)N1CCN(c2ncc(C(F)(F)F)cn2)CC1)n1cc(C(F)(F)F)c2c(=O)[nH]ncc21 (single isomer, unassigned) [Compound 223, 1-(1-(3-oxo-3-(4-(5-(trifluoromethyl)pyrimidin-2-yl)piperazin-1-yl)propoxy)propan-2-yl)-3-(trifluoromethyl)-1,5-dihydro-4H-pyrrolo[2,3-d]pyridazin-4-one] | ≤ 100
CC(COCCC(=O)N1CCN(c2ncc(C(F)(F)F)cn2)CC1)n1cc(C(F)(F)F)c2c(=O)[nH]ncc21 (single isomer, unassigned) [Compound 224, 1-(1-(3-oxo-3-(4-(5-(trifluoromethyl)pyrimidin-2-yl)piperazin-1-yl)propoxy)propan-2-yl)-3-(trifluoromethyl)-1,5-dihydro-4H-pyrrolo[2,3-d]pyridazin-4-one] | ≤ 100
Cc1nn(C(C)COCCC(=O)N2CCN(c3ncc(C(F)(F)F)cn3)CC2)c2cn[nH]c(=O)c12 (single isomer, unassigned) [Compound 245] | ≤ 100
CC(COCCC(=O)N1CCN(c2ncc(F)cn2)CC1)n1nc(C(F)(F)F)c2c(=O)[nH]ncc21 (single isomer, unassigned) [Compound 248, 1-(1-(3-(4-(5-fluoropyrimidin-2-yl)piperazin-1-yl)-3-oxopropoxy)propan-2-yl)-3-(trifluoromethyl)-1,5-dihydro-4H-pyrazolo[3,4-d]pyridazin-4-one] | ≤ 100
CC(COCCC(=O)N1CCN(c2ncc(F)cn2)CC1)n1nc(C(F)(F)F)c2c(=O)[nH]ncc21 (single isomer, unassigned) [Compound 249, 1-(1-(3-(4-(5-fluoropyrimidin-2-yl)piperazin-1-yl)-3-oxopropoxy)propan-2-yl)-3-(trifluoromethyl)-1,5-dihydro-4H-pyrazolo[3,4-d]pyridazin-4-one] | ≤ 100
CC(COCCC(=O)N1CCN(c2nc(C#N)cs2)CC1)n1nc(C(F)(F)F)c2c(=O)[nH]ncc21 (single isomer, unassigned) [Compound 250] | 1000 to 10000
CC(COCCC(=O)N1CCN(c2ccc(OC(F)(F)F)cn2)CC1)n1nc(C(F)(F)F)c2c(=O)[nH]ncc21 (single isomer, unassigned) [Compound 253] | ≤ 100
CC(COCCC(=O)N1CCN(c2ccc(OC(F)(F)F)cn2)CC1)n1nc(C(F)(F)F)c2c(=O)[nH]ncc21 (single isomer, unassigned) [Compound 254] | ≤ 100
Cc1nn(CCOCCC(=O)N2CCN(c3ncc(C(F)(F)F)cn3)C(C)C2)c2cn[nH]c(=O)c12 (single isomer, unassigned) [Compound 255] | ≤ 100
CC(COCCC(=O)N1CCN(c2ncc(C(F)(F)F)s2)CC1)n1nc(C(F)(F)F)c2c(=O)[nH]ncc21 (single isomer, unassigned) [Compound 258] | ≤ 100

Compound | IC50 [nM]
Cc1nn(C(C)COCCC(=O)N2CCN(c3ncc(C#N)cn3)CC2)c2cn[nH]c(=O)c12 (single isomer, unassigned) [Compound 262] | ≤ 100
Cc1nn(C(C)COCCC(=O)N2CCN(c3ncc(C#N)cn3)CC2)c2cn[nH]c(=O)c12 (single isomer, unassigned) [Compound 263] | ≤ 100
CC(COCCC(=O)N1CCN(c2cnc(C(F)(F)F)cn2)CC1)n1nc(C(F)(F)F)c2c(=O)[nH]ncc21 (single isomer, unassigned) [Compound 266] | ≤ 100
CC(COCCC(=O)N1CCN(c2ccc(C#N)cn2)CC1)n1nc(C(F)(F)F)c2c(=O)[nH]ncc21 (single isomer, unassigned) [Compound 270] | ≤ 100
CC(COCCC(=O)N1CCN(c2ccc(OC(F)F)cn2)CC1)n1nc(C(F)(F)F)c2c(=O)[nH]ncc21 (single isomer, unassigned) [Compound 274] | ≤ 100
CC(COCCC(=O)N1CCN(c2ccc(C3CC3)cn2)CC1)n1nc(C(F)(F)F)c2c(=O)[nH]ncc21 (single isomer, unassigned) [Compound 279] | ≤ 100
CC(COCCC(=O)N1CCN(c2ncc(C3CC3)cn2)CC1)n1nc(C(F)(F)F)c2c(=O)[nH]ncc21 (single isomer, unassigned) [Compound 280] | ≤ 100
CC(COCCC(=O)N1CCN(c2ncc(C3CC3)cn2)CC1)n1nc(C(F)(F)F)c2c(=O)[nH]ncc21 (single isomer, unassigned) [Compound 281] | ≤ 100
CC(COCCC(=O)N1CCN(c2ncc(C#N)s2)CC1)n1nc(C(F)(F)F)c2c(=O)[nH]ncc21 (single isomer, unassigned) [Compound 284] | ≤ 100
CC(COCCC(=O)N1CCN(c2ncc(C3COC3)cn2)CC1)n1nc(C(F)(F)F)c2c(=O)[nH]ncc21 (single isomer, unassigned) [Compound 289] | ≤ 100
CC(COCCC(=O)N1CCN(c2nnc(C(F)(F)F)s2)CC1)n1nc(C(F)(F)F)c2c(=O)[nH]ncc21 (single isomer, unassigned) [Compound 291] | 100 to 1000
CC(COCCC(=O)N1CCN(c2ncc(OC(F)F)cn2)CC1)n1nc(C(F)(F)F)c2c(=O)[nH]ncc21 (single isomer, unassigned) [Compound 294] | ≤ 100
CNC(=O)c1ccc(N2CCN(C(=O)CCOCC(C)n3nc(C(F)(F)F)c4c(=O)[nH]ncc43)CC2)nc1 (single isomer, unassigned) [Compound 305] | ≤ 100
COc1ccc(N2CCN(C(=O)CCOCC(C)n3nc(C(F)(F)F)c4c(=O)[nH]ncc43)CC2)nc1 (single isomer, unassigned) [Compound 306] | ≤ 100
CC(COCCC(=O)N1CCN(c2ccc(C3COC3)cn2)CC1)n1nc(C(F)(F)F)c2c(=O)[nH]ncc21 (single isomer, unassigned) [Compound 310] | ≤ 100
CC(COCCC(=O)N1CCN(c2ccc(C3COC3)cn2)CC1)n1nc(C(F)(F)F)c2c(=O)[nH]ncc21 (single isomer, unassigned) [Compound 311] | 100 to 1000
CC(COCCC(=O)N1CCN(c2nc(C#N)co2)CC1)n1nc(C(F)(F)F)c2c(=O)[nH]ncc21 (single isomer, unassigned) [Compound 318] | 100 to 1000
CC(COCCC(=O)N1CCN(c2nc(C#N)co2)CC1)n1nc(C(F)(F)F)c2c(=O)[nH]ncc21 (single isomer, unassigned) [Compound 319] | ≤ 100
